Test results: ChEMBL document CHEMBL1201862, “PubChem BioAssay data set” (2004)
Calls of active or inactive are those of the source.

Legend:
Cytochrome P450 2D6 = Cytochrome P450 2D6 (Homo sapiens, UniProt P10635);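 note: CYP2D6 member of a cytochrome P450 panel assay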
[1] = HIV-1 AD8 envelope cell-cell fusion blockers – cherry-pick, dose response (AID 652062); format: functional, cell-based;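 note: luciferase signal from cell-cell fusion driven by HIV-1 clade B AD8 Env; potency is for inhibitors of fusion seen as a drop in luminescence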
[2] = molecular target: T1, Calpain-2 catalytic subunit (Sus scrofa, UniProt P43367); assay: m-calpain protease blockers, concentration series – biochemical, fluorogenic peptide substrate, dose response (AID 1420); format: functional
T1 sequence (P43367 whole entry): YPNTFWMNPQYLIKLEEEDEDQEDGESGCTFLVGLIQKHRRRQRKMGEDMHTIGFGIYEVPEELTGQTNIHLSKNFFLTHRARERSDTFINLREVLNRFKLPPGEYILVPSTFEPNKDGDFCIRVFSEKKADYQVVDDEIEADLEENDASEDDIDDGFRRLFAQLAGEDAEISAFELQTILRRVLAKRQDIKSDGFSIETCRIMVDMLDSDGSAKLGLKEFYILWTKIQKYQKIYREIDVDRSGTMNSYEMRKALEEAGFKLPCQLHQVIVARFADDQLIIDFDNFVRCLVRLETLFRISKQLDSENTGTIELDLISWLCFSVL

[3] = blockers of HIV-1 ZM109 envelope-driven cell-cell fusion – HeLa effector, CEM target cells, luciferase, cherry-pick, dose response (AID 652058); format: functional, cell-based;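 note: luciferase signal from HIV-1 Env mediated cell-cell fusion of effector and target cells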
[4] = blockers of HIV-1 envelope-mediated cell-cell fusion – cherry-pick, dose response (AID 652057); format: functional, cell-based
Cytochrome P450 2C9 = Cytochrome P450 2C9 (Homo sapiens, UniProt P11712)
Sequence of Cytochrome P450 2C9 (P11712 whole entry, the tested form may be a part): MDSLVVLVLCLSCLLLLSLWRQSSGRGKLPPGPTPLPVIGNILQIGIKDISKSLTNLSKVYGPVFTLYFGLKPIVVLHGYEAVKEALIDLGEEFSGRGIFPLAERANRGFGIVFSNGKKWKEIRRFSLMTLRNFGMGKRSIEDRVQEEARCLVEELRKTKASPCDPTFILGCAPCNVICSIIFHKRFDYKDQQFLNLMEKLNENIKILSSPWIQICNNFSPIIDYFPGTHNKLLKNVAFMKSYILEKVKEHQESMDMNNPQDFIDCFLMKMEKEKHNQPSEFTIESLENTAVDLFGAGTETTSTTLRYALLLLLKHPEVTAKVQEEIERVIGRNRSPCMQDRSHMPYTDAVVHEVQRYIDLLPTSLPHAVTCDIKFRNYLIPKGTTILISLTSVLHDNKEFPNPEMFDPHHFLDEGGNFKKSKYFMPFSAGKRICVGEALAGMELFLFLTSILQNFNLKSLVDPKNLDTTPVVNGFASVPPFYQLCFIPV

[5] = off-target signal loss in HeLa-CEM21 co-culture – HeLa F-luc CTL cells, cherry-picked, counter-screen for HIV-1 Env fusion inhibitor project, dose response (AID 652040); format: functional, cell-based;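 note: potency for signal decrease marking cytotoxic or nonspecific inhibition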
[6] = molecular target: T2, Corticotropin-releasing factor receptor 2/Corticotropin-releasing factor-binding protein (Homo sapiens, UniProt P24387+Q13324); assay: activators of CRF receptor 2 with binding protein – uHTS hits, confirmation (AID 602473); format: functional; settings: read-out: EC50_Mean
T2 sequence (Q13324 whole entry): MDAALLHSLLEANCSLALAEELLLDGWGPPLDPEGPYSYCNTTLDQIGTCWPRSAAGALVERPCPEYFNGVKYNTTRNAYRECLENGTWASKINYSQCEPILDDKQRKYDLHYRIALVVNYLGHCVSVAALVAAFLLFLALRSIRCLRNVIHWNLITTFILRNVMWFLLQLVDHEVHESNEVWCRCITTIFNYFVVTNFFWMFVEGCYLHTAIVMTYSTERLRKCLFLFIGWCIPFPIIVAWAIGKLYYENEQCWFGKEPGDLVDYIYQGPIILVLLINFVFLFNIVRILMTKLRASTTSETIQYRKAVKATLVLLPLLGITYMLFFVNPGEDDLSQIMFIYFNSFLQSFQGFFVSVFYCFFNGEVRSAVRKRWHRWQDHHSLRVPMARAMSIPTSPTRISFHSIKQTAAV
T2 sequence (P24387 whole entry): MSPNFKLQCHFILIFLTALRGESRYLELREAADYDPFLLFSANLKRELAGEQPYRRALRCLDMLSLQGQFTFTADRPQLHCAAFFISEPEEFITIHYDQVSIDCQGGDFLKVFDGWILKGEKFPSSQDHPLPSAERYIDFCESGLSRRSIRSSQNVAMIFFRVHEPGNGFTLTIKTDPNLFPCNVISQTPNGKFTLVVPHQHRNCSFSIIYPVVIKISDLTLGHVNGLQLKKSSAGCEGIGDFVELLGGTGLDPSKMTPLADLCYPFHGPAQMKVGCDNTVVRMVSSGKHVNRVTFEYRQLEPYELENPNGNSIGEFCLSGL

[7] = molecular target: T3, Endoribonuclease toxin MazF (Escherichia coli K-12, UniProt P0AE70); assay: substrate-only fluorescence increase artefacts – biochemical, single-stranded RNase substrate, counter-screen for MazEF activator project, dose response (AID 588502); format: functional
T3 sequence (P0AE70 whole entry): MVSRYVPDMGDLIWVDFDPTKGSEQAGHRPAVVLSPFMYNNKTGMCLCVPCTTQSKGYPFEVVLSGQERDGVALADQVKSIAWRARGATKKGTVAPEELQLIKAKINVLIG

[8] = molecular target: T2, Corticotropin-releasing factor receptor 2/Corticotropin-releasing factor-binding protein; assay: Dose Response confirmation of uHTS hits for small molecule antagonists of the CRF-binding protein and CRF-R2 receptor complex.; format: functional; settings: read-out: IC50_Mean
[9] = molecular target: T3, Endoribonuclease toxin MazF; assay: activation of MazEF endoribonuclease cleavage – biochemical, fluorescence, single-stranded RNA substrate, uHTS hits, dose response (AID 588481); format: functional
[10] = viability loss in HeLa cells – cytotoxicity control for MgcRacGAP inhibitor project, dose response (AID 624300); format: functional
[11] = molecular target: T4, Rac GTPase-activating protein 1 (Homo sapiens, UniProt Q9H0H5); assay: blockers of MgcRacGAP-driven Rac1 GTP hydrolysis – biochemical, ADP Hunter fluorescence, primary and confirmatory, confirmation (AID 624330); format: functional
T4 sequence (Q9H0H5 whole entry): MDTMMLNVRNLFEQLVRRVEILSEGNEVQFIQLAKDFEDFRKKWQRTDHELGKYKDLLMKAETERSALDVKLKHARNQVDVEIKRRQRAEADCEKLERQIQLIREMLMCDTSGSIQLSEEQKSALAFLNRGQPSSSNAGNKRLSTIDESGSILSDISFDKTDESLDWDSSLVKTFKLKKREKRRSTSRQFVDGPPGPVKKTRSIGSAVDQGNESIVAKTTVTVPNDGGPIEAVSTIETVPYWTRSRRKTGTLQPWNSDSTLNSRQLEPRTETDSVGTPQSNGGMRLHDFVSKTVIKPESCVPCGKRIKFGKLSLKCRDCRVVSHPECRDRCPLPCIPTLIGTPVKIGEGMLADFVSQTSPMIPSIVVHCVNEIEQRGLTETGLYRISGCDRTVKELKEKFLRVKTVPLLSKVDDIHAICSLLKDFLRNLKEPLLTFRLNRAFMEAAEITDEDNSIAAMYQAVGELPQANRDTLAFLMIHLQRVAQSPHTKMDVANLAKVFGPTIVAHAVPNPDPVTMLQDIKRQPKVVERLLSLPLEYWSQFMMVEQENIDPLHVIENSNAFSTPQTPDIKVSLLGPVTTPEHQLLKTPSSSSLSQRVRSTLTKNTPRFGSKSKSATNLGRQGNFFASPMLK

[12] = molecular target: Dual specificity tyrosine-phosphorylation-regulated kinase 1A (Rattus norvegicus, UniProt Q63470); format: biochemical, Homo sapiens
[13] = molecular target: T5, Microphthalmia-associated transcription factor (Homo sapiens, UniProt O75030); assay: reducers of TRPM1 reporter luminescence, concentration series – cell-based, SK-MEL-5, cherry-picked, set 3, MITF inhibitor project, dose response (AID 493073); format: functional;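 note: SK-MEL-5 melanoma cells with luciferase driven by the MITF target TRPM1 promoter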
T5 sequence (O75030 whole entry): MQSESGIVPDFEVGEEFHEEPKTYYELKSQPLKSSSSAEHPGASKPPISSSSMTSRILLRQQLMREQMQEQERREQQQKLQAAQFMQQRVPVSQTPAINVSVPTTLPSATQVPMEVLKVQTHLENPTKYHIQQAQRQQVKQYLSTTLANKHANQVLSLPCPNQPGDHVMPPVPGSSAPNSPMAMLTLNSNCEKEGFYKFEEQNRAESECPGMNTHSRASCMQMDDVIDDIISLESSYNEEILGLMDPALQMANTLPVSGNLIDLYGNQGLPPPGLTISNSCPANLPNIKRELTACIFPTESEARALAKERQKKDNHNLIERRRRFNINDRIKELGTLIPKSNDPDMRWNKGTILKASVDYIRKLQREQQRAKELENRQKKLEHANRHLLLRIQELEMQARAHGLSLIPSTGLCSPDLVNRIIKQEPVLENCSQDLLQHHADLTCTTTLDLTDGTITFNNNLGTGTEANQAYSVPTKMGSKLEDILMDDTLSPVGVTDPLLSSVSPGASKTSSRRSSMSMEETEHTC

Beta-galactosidase = Beta-galactosidase (Escherichia coli, UniProt Q8VNN2); assay: PubChem AID 485352; format: functional
Sequence of Beta-galactosidase (Q8VNN2 whole entry): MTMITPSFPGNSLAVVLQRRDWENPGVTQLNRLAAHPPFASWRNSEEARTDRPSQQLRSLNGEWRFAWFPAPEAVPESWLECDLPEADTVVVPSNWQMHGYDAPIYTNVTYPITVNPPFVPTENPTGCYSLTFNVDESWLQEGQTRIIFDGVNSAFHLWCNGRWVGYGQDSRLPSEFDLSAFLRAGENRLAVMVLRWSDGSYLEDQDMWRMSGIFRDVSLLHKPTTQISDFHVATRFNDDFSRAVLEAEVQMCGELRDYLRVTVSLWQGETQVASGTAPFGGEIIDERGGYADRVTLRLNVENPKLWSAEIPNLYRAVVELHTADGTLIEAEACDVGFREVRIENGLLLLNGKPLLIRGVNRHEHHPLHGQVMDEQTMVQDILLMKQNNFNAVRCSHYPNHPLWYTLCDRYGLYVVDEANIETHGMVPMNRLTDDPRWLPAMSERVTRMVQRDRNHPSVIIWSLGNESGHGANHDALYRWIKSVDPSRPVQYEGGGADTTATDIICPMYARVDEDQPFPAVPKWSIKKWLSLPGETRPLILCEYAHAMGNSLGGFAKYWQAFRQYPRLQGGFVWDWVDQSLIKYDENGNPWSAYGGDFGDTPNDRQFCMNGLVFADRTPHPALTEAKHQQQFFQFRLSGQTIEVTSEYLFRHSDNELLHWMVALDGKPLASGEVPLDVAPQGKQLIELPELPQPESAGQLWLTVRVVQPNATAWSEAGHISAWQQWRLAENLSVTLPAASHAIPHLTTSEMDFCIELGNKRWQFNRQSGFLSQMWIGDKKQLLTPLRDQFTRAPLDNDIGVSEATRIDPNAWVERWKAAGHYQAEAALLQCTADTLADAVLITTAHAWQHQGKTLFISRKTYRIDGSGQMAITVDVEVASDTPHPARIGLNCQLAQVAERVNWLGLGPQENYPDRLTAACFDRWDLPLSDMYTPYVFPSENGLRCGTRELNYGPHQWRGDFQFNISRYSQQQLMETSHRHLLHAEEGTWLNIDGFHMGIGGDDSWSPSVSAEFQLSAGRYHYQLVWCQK

[14] = molecular target: T6, Type-1 angiotensin II receptor (Homo sapiens, UniProt P30556); assay: antagonism of angiotensin II type 1 receptor – cell-based, uHTS hits, selectivity assay for APJ receptor antagonist project, dose response (AID 463214); format: functional;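 note: antagonist potency against angiotensin II stimulated AT1 response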
T6 sequence (P30556 whole entry): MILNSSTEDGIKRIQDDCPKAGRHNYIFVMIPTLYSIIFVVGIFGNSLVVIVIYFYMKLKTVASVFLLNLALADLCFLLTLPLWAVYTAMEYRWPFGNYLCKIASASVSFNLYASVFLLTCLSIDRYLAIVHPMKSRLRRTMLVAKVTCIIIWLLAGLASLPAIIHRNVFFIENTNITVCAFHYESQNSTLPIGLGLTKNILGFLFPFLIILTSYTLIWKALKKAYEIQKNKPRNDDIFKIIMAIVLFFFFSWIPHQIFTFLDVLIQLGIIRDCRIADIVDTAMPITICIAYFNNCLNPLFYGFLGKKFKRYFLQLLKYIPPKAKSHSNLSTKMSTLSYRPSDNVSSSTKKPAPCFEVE

[15] = system: Streptococcus sp. 'group A'; assay: Streptococcus pyogenes SK(-)GAS viability under kanamycin – luminescence, BacTiterGlo, confirmation, counter-screen for streptokinase expression inhibitor project, dose response (AID 1900); format: functional, organism-based
Streptococcus = assay: GAS UMAA2166 growth inhibition – luminescence, BacTiterGlo, counter-screen for streptokinase expression inhibitor project, dose response (AID 1915); format: functional, organism-based;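 note: potency for reduction of bacterial viability or growth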
Streptokinase A = molecular target: T7, Streptokinase A (Streptococcus pyogenes serotype M1, UniProt P10520); assay: viability-normalized secreted streptokinase activity reduction – plasminogen activation absorbance, OD405, dose response (AID 1914); format: functional, Streptococcus pyogenes M1 GAS;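 note: secreted streptokinase activity via plasminogen activation per viability signal from cell pellet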
T7 sequence (P10520 whole entry): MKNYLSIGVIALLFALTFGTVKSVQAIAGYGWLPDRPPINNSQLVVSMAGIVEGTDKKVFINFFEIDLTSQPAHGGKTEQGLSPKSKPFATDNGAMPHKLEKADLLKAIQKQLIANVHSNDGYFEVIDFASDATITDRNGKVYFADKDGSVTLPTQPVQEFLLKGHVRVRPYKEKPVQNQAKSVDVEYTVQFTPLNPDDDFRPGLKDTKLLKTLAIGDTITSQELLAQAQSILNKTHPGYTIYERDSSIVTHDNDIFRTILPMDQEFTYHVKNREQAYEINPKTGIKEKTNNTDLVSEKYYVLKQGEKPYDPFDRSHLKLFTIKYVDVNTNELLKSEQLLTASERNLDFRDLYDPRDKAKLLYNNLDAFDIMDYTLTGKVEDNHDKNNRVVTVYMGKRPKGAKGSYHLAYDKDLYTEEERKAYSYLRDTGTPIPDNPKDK

Nonstructural protein 1 = Nonstructural protein 1 (Influenza A virus, UniProt Q194T2); format: functional, Influenza A virus (A/California/07/2009(H1N1))
Sequence of Nonstructural protein 1 (Q194T2 whole entry): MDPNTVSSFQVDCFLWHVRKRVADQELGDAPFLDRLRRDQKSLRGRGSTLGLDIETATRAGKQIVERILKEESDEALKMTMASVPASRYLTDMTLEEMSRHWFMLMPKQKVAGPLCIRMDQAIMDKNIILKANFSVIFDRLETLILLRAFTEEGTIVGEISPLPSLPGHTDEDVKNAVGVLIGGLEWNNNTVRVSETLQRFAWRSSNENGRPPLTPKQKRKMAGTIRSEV

[16] = molecular target: Ras and Rab interactor 1/Tyrosine-protein kinase ABL1 (Homo sapiens, UniProt P00519+Q13671); format: functional;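 note: biochemical TR-FRET dose-response test measuring inhibition of binding between Rin1 and Abl proteins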
Sequence of Ras and Rab interactor 1/Tyrosine-protein kinase ABL1 (P00519 whole entry): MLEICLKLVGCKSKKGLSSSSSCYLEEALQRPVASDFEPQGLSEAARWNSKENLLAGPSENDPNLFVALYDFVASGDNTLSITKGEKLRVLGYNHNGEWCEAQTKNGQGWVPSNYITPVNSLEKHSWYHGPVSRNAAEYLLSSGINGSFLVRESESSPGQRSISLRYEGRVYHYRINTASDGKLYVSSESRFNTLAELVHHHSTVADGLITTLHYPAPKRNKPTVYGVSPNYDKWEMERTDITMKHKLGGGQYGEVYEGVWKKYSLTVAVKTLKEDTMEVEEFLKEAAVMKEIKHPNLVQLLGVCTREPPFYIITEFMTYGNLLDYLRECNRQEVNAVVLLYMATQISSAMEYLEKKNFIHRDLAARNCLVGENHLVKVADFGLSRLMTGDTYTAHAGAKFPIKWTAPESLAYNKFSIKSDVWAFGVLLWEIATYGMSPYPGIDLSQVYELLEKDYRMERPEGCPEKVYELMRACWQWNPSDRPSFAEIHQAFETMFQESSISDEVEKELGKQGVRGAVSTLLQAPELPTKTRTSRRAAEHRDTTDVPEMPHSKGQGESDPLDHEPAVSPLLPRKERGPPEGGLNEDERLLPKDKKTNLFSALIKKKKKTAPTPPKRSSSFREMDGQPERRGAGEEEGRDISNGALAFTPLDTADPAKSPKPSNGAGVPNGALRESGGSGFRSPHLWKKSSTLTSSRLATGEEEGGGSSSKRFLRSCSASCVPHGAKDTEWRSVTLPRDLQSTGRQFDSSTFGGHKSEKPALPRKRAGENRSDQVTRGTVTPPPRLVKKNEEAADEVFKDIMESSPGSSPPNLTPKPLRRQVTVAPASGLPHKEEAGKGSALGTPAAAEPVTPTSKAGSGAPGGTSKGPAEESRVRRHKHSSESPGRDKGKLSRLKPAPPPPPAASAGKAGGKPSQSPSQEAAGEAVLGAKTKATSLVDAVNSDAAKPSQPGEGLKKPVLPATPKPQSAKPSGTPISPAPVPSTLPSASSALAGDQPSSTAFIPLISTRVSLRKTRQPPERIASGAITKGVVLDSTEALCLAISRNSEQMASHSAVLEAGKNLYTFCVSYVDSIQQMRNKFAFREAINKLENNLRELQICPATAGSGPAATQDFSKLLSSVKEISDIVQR
Sequence of Ras and Rab interactor 1/Tyrosine-protein kinase ABL1 (Q13671 whole entry): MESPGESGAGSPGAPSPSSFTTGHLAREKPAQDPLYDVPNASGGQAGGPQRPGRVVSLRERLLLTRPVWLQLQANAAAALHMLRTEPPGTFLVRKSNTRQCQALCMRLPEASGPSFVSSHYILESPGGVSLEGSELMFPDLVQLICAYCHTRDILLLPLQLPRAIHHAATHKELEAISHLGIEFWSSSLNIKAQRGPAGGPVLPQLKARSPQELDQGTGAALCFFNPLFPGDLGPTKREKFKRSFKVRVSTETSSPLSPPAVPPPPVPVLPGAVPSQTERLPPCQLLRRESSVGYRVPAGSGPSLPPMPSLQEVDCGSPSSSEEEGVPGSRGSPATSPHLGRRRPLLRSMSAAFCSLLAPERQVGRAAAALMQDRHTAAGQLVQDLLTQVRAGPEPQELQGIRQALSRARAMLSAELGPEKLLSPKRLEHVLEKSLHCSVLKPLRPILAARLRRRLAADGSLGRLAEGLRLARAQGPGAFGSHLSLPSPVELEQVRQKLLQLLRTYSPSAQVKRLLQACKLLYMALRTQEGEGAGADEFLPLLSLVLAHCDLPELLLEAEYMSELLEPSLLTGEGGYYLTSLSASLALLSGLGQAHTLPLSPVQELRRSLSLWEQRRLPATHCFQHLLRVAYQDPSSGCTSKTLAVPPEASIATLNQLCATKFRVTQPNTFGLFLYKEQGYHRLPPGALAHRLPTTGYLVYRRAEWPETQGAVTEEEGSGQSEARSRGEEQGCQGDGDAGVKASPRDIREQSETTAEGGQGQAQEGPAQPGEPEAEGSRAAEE

cells [17] = format: functional, cell-based
cells [18] = format: functional, cell-based; remark: listed apart in the source
[19] = microbe, parasite or virus in culture; format: functional; settings: Mycobacterium tuberculosis
Fatty acid synthase [20] = molecular target: T8, Fatty acid synthase (Homo sapiens, UniProt P49327); assay: inhibition of human FAS-TE enzyme activity – biochemical, kinetic fluorescence intensity, dose response (AID 624326); format: functional;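 note: rate of fluorescence rise from hydrolysis of a fluorogenic O-methyl fluorescein ester substrate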
Fatty acid synthase [21] = molecular target: T8, Fatty acid synthase; assay: inhibition of human FAS-TE enzyme activity – biochemical, endpoint fluorescence intensity, uHTS hits, dose response (AID 624327); format: functional;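 note: fluorescence from hydrolysis of an O-methyl fluorescein acyl ester substrate by the enzyme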

Sequence of Cytochrome P450 2D6 (P10635 whole entry, the tested form may be a part): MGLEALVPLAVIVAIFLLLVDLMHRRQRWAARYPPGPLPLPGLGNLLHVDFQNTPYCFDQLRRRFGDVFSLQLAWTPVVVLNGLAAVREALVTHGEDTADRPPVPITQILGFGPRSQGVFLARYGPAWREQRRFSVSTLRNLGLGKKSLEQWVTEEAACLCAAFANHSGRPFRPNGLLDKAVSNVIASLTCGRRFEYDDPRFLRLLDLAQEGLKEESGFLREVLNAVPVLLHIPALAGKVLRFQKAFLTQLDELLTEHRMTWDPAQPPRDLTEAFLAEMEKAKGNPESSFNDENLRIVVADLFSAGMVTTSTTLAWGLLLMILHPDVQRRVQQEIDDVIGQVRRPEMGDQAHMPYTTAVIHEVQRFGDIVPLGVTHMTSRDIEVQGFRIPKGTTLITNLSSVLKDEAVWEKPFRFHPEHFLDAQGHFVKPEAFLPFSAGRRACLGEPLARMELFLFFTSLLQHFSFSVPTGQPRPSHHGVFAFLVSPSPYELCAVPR

CCC(C(=O)c1ccccc1)N(C(=O)c1ccccc1Cl)N1C(=O)C2C3C=CC(C3)C2C1=O (stereo unspecified)
AC50 (Cytochrome P450 2D6): 7.08 µM (inconclusive)
AC50 [1]: 27.5 µM (active)
IC50 [2]: 24.3 µM (not active)
AC50 [3]: 6.01 µM (active)
AC50 [4]: 4.55 µM (active)
AC50 (Cytochrome P450 2C9): 10 µM (inconclusive)
AC50 [5]: 7.95 µM (active)

Cc1ccccc1Cn1cccc1/C=C1/C(=N)N2C=CSC2=NC1=O
EC50 [6]: > 53 µM (inactive)
EC50 [7]: > 99 µM (inactive)
IC50 [8]: > 47.1 µM (inactive)
EC50 [9]: > 99 µM (inactive)

Cc1ccc(-c2cnc(NCc3cc4c(cc3[N+](=O)[O-])OCO4)n2C)cc1C
CC50 [10]: 100 µM (active)
IC50 [11]: 77.6 µM (active)

CCOC(=O)CSC1=NC(=O)/C(=C/c2ccc(OC)cc2)S1
AC50 [12]: 0.395 µM (active)
AC50 [13]: 3.98 µM (active)

CC1(C)CC2(CC(c3ccccc3F)c3cc(Cl)c(O)cc3O2)NC(=S)N1 (stereo unspecified)
EC50 (Beta-galactosidase): > 40 µM (inactive)
IC50 [14]: > 40 µM (not active)

CCSc1nnc(NC(=O)c2ccccn2)s1
EC50 [15]: 6.34 µM (active)
EC50 (Streptococcus): 15.3 µM (active)
EC50 (Beta-galactosidase): > 40 µM (inactive)
EC50 (Streptokinase A): > 150 µM (not active)
IC50 [14]: 16.8 µM (active)
IC50 (Nonstructural protein 1): 10.6 µM (active)

CC(=O)NC12CC3CC(C1)CC(C(=O)Nc1nc4ccc(F)cc4s1)(C3)C2
AC50 [12]: 2.64 µM (active)

C[C@@H]1CCCCO[C@@H](CN(C)S(=O)(=O)c2cccs2)[C@@H](C)CN([C@H](C)CO)C(=O)c2cc(NS(=O)(=O)c3ccccc3)ccc2O1
IC50 [16]: 1.27 µM (active)

CCOC(=O)/C(=N\Nc1ccc(C(C)=O)cc1)c1csc(Nc2ccccc2)n1
EC50 [6]: 18.3 µM (active)
EC50 [7]: 38.1 µM (inactive)
EC50 [9]: > 99 µM (inactive)

CCCOc1ccc(/C=N/NC(=O)CSc2ccccn2)cc1OC
EC50 (cells [17]): > 350 µM (not active)
IC50 [16]: 12 µM (inactive)
EC50 (cells [18]): > 350 µM (not active)

COc1cc(/C=N/N(C)c2ccccc2)cc(Cl)c1O
CC50 [10]: 100 µM (active)
CC50 [19]: > 40 µM (active)
IC50 [11]: 38.2 µM (active)
IC50 (Fatty acid synthase [20]): 5.46 µM (active)
IC50 (Fatty acid synthase [21]): 4.5 µM (active)
